Results on two compounds are retold here after US20240270673A1, “PROCESS AND SYSTEM FOR THE RECOVERY OF GLYOXYLIC ACID” (Avantium Knowledge Centre B.V., priority 2021, published 2024).

The nature of this series: Low-temperature crystallization of oxalic acid from aqueous glyoxylic acid/oxalic acid solutions (Crystal16 parallel crystallizer), liquid phase concentration after equilibration. In kind it is physicochemical. The following applies: liquid phase after equilibration over night. The source says: Low-temperature crystallization experiments have been carried out on a series of solutions containing glyoxylic acid and oxalic acid at different concentrations.
Solutions containing glyoxylic acid and oxalic acid at different concentrations have been prepared and were cooled under controlled conditions in a Crystal16™ parallel crystallizer (Technobis Crystallization Systems). After reaching the set temperature the mixture as left to equilibrate over night after which a sample of the liquid phase was taken to determine the concentration of oxalic acid and glyoxylic acid after crystallization.

Where [1] appears, read: Entry 1, T setpoint 10 degree Celsius, at RT glyoxylic 150.4 gr/L, oxalic 58.8 gr/L.
Where [2] appears, read: Entry 2, T setpoint 5 degree Celsius, at RT glyoxylic 150.4 gr/L, oxalic 58.8 gr/L.
The mark [3] stands for this setting: Entry 3, T setpoint 0 degree Celsius, at RT glyoxylic 150.4 gr/L, oxalic 58.8 gr/L.
Setting [4] is: Entry 4, T setpoint −5 degree Celsius, at RT glyoxylic 150.4 gr/L, oxalic 58.8 gr/L.
Where [5] appears, read: Entry 5, T setpoint 10 degree Celsius, at RT glyoxylic 310.6 gr/L, oxalic 44.1 gr/L.
[6] abbreviates: Entry 6, T setpoint 5 degree Celsius, at RT glyoxylic 310.6 gr/L, oxalic 44.1 gr/L.
[7] abbreviates: Entry 7, T setpoint 0 degree Celsius, at RT glyoxylic 310.6 gr/L, oxalic 44.1 gr/L.
[8] abbreviates: Entry 8, T setpoint −5 degree Celsius, at RT glyoxylic 566.8 gr/L, oxalic 29.5 gr/L.

On to `O=CC(=O)O` [glyoxylic acid, Glyoxylic acid], for which the “Glyoxylic concentration at setpoint” value runs as follows: under setting [1], 156.1 gr/L; under setting [2], 160.62 gr/L; under setting [3], 157.73 gr/L; under setting [4], 161.70 gr/L; under setting [5], 326.42 gr/L; under setting [6], 323.65 gr/L. Besides, the “Glyoxylic concentration at setpoint” value turned out to be 332.54 gr/L under setting [7] and 573.48 gr/L under setting [8].
Take `O=C(O)C(=O)O` [oxalic acid]: the “Oxalic concentration at setpoint” value stood at 36.3 gr/L under setting [1]; 32.70 gr/L under setting [2]; 27.04 gr/L under setting [3]; 22.37 gr/L under setting [4]; 29.07 gr/L under setting [5]; 21.83 gr/L under setting [6]. Further, the “Oxalic concentration at setpoint” value amounted to 19.25 gr/L under setting [7] and 9.57 gr/L under setting [8].
